Test results: patent US6737383B1, “Herbicidal oxadiazolidines” (priority 1999, dated 2004)

Columns and labels:
[1] = test system: corn; experiment: Test B pre/postemergence corn; type: in vivo, Zea mays
How it was run: (§1)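 Herbicidal effect was estimated by eye on a ten-point control scale after plants spent twelve to sixteen days in a greenhouse following soil or foliar treatment. Foliar sprays targeted plants at one to four leaves; all doses were formulated in a non-phytotoxic solvent with surfactant.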

[2] = test system: velvetleaf; experiment: Test B pre/postemergence velvetleaf; type: in vivo, Abutilon theophrasti
How it was run: as §1

[3] = test system: morningglory; experiment: Test B pre/postemergence morningglory; type: in vivo, Ipomoea hederacea
How it was run: as §1

[4] = test system: wheat; experiment: Test B pre/postemergence wheat; type: in vivo, Triticum aestivum
How it was run: as §1

[5] = test system: soybean; experiment: Test B pre/postemergence soybean; type: in vivo, Glycine max
How it was run: as §1

[6] = test system: wild oat; experiment: Test B pre/postemergence wild oat; type: in vivo, Avena fatua
How it was run: as §1

[7] = test system: rape; experiment: Test B pre/postemergence rape; type: in vivo, Brassica napus
How it was run: as §1

[8] = test system: sugar beet; experiment: Test B pre/postemergence sugar beet; type: in vivo, Beta vulgaris
How it was run: as §1

[9] = test system: bamyardgrass; experiment: Test B flood test barnyardgrass; type: in vivo, Echinochloa crus-galli
How it was run: (§2)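 Each value is a visual injury score relative to controls, with 10 meaning complete control and 0 no effect. Evaluation took place twelve to sixteen days after the 2-leaf-stage plants were treated and kept in the greenhouse.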

[10] = test system: cocklebur; experiment: Test B pre/postemergence cocklebur; type: in vivo, Xanthium strumarium
How it was run: as §1

[11] = test system: crabgrass; experiment: Test B pre/postemergence crabgrass; type: in vivo, Digitaria sanguinalis
How it was run: as §1

[12] = test system: duck salad; experiment: Test B flood test duck salad; type: in vivo, Heteranthera limosa
How it was run: as §2

[13] = test system: giant foxtail; experiment: Test B pre/postemergence giant foxtail; type: in vivo, Setaria faberii
How it was run: as §1

[14] = test system: purple nutsedge; experiment: Test B pre/postemergence purple nutsedge; type: in vivo, Cyperus rotundus
How it was run: as §1

[15] = test system: rice; experiment: Test B flood test rice; type: in vivo, Oryza sativa
How it was run: as §2

[16] = test system: pigweed; experiment: Test B pre/postemergence pigweed; type: in vivo, Amaranthus retroflexus
How it was run: as §1

[17] = Postemergence, Rate 62 g/ha, scale 0 to 10, 0 is no effect, 10 is complete control
[18] = Postemergence, Rate 250 g/ha, scale 0 to 10, 0 no effect, 10 complete control
[19] = Postemergence, Rate 1000 g/ha, scale 0 to 10 (0 no effect, 10 complete control)
[20] = Preemergence, Rate 31 g/ha, visual rating, scale 0 to 10 (0 no effect, 10 complete control)
[21] = Preemergence, Rate 62 g/ha, scale 0 to 10, 0 is no effect, 10 is complete control
[22] = Preemergence, Rate 125 g/ha, scale 0 to 10 (0 no effect, 10 complete control)
[23] = Preemergence, Rate 250 g/ha, scale of 0 to 10 where 0 is no effect and 10 is complete control
[24] = Preemergence, Rate 500 g/ha, scale 0 (no effect) to 10 (complete control)
[25] = Rate 31 g/ha, Postemergence, scale 0 to 10
[26] = Rate 125 g/ha, Postemergence, scale 0 to 10, 0 no effect, 10 complete control
[27] = Rate 500 g/ha, Postemergence, 0 to 10 scale (0 no effect, 10 complete control)
[28] = Rate 1000 g/ha, Preemergence, scale 0 to 10 (0 no effect, 10 complete control)
[29] = Rate 31 g/ha, Postemergence section (flood test species), scale 0 to 10
[30] = Rate 125 g/ha, Postemergence section (flood test species), scale 0 to 10, 0 no effect, 10 complete control
[31] = Rate 500 g/ha, Postemergence section of Table B, 0 to 10 scale (0 no effect, 10 complete control)
[32] = flood test, listed under Postemergence, Rate 250 g/ha, scale 0 to 10, 0 no effect, 10 complete control

Cc1ccccc1-n1c(=O)on(C(=O)N(c2ccc(F)cc2)C(C)C)c1=O [Compound 4]
0: Corn plant response rating [1, 17] | Corn plant response rating [1, 18] | Corn plant response rating [1, 19] | Corn plant response rating [1, 20] | Plant response rating, Corn [1, 21] | Plant response rating, Corn [1, 22] | Plant response rating, Corn [1, 23] | Corn plant response rating [1, 24] | Corn plant response rating [1, 25] | Corn plant response rating [1, 26] | Corn plant response rating [1, 27] | Plant response rating, Corn [1, 28] | Velvetleaf plant response rating [2, 17] | Velvetleaf plant response rating [2, 20] | Plant response rating, Velvetleaf [2, 21] | Plant response rating, Velvetleaf [2, 22] | Plant response rating, Velvetleaf [2, 23] | Velvetleaf plant response rating [2, 24] | Plant response rating, Velvetleaf [2, 28] | Morningglory plant response rating [3, 17] | Morningglory plant response rating [3, 20] | Plant response rating, Morningglory [3, 21] | Plant response rating, Morningglory [3, 22] | Plant response rating, Morningglory [3, 23] | Morningglory plant response rating [3, 24] | Morningglory plant response rating [3, 25] | Plant response rating, Morningglory [3, 28] | Wheat plant response rating [4, 17] | Wheat plant response rating [4, 18] | Wheat plant response rating [4, 19] | Wheat plant response rating [4, 20] | Plant response rating, Wheat [4, 21] | Plant response rating, Wheat [4, 22] | Plant response rating, Wheat [4, 23] | Wheat plant response rating [4, 24] | Wheat plant response rating [4, 26] | Plant response rating, Wheat [4, 28] | Soybean plant response rating [5, 20] | Plant response rating, Soybean [5, 21] | Plant response rating, Soybean [5, 22] | Plant response rating, Soybean [5, 23] | Soybean plant response rating [5, 24] | Wild oats plant response rating [6, 17] | Wild oats plant response rating [6, 18] | Wild oats plant response rating [6, 19] | Wild oats plant response rating [6, 20] | Plant response rating, Wild oats [6, 22] | Wild oats plant response rating [6, 26] | Rape plant response rating [7, 17] | Rape plant response rating [7, 18] | Rape plant response rating [7, 20] | Plant response rating, Rape [7, 21] | Plant response rating, Rape [7, 22] | Rape plant response rating [7, 24] | Rape plant response rating [7, 25] | Rape plant response rating [7, 26] | Sugarbeets plant response rating [8, 17] | Sugarbeets plant response rating [8, 20] | Plant response rating, Sugarbeets [8, 21] | Barnyardgrass plant response rating [9, 17] | Barnyardgrass plant response rating [9, 29] | Barnyardgrass plant response rating [9, 30] | Cocklebur plant response rating [10, 17] | Cocklebur plant response rating [10, 20] | Plant response rating, Cocklebur [10, 21] | Plant response rating, Cocklebur [10, 22] | Plant response rating, Cocklebur [10, 23] | Cocklebur plant response rating [10, 24] | Cocklebur plant response rating [10, 25] | Plant response rating, Cocklebur [10, 28] | Crabgrass plant response rating [11, 17] | Crabgrass plant response rating [11, 25] | Ducksalad plant response rating [12, 17] | Ducksalad plant response rating [12, 29] | Ducksalad plant response rating [12, 30] | Giant foxtail plant response rating [13, 17] | Giant foxtail plant response rating [13, 25] | Nutsedge plant response rating [14, 17] | Nutsedge plant response rating [14, 18] | Nutsedge plant response rating [14, 19] | Nutsedge plant response rating [14, 20] | Plant response rating, Nutsedge [14, 21] | Plant response rating, Nutsedge [14, 22] | Plant response rating, Nutsedge [14, 23] | Nutsedge plant response rating [14, 24] | Nutsedge plant response rating [14, 25] | Nutsedge plant response rating [14, 26] | Nutsedge plant response rating [14, 27] | Plant response rating, Nutsedge [14, 28] | Rice plant response rating [15, 17] | Rice plant response rating [15, 19] | Rice plant response rating [15, 29] | Rice plant response rating [15, 30] | Rice plant response rating [15, 31] | Rice plant response rating [15, 32] | Redroot pigweed plant response rating [16, 17] | Redroot pigweed plant response rating [16, 20] | Redroot pigweed plant response rating [16, 25]
7: Velvetleaf plant response rating [2, 19] | Wild oats plant response rating [6, 24] | Plant response rating, Sugarbeets [8, 22] | Redroot pigweed plant response rating [16, 27]
4: Soybean plant response rating [5, 18] | Soybean plant response rating [5, 26] | Plant response rating, Wild oats [6, 23] | Sugarbeets plant response rating [8, 19] | Plant response rating, Sugarbeets [8, 28] | Barnyardgrass plant response rating [9, 19] | Barnyardgrass plant response rating [9, 31] | Giant foxtail plant response rating [13, 27] | Redroot pigweed plant response rating [16, 26]
3: Velvetleaf plant response rating [2, 18] | Velvetleaf plant response rating [2, 26] | Morningglory plant response rating [3, 18] | Morningglory plant response rating [3, 19] | Morningglory plant response rating [3, 27] | Rape plant response rating [7, 19] | Plant response rating, Rape [7, 28] | Sugarbeets plant response rating [8, 18] | Sugarbeets plant response rating [8, 24] | Barnyardgrass plant response rating [9, 32] | Crabgrass plant response rating [11, 20] | Plant response rating, Crabgrass [11, 21] | Ducksalad plant response rating [12, 19] | Giant foxtail plant response rating [13, 18]
8: Plant response rating, Wild oats [6, 28] | Plant response rating, Sugarbeets [8, 23] | Cocklebur plant response rating [10, 19] | Crabgrass plant response rating [11, 18] | Crabgrass plant response rating [11, 19] | Crabgrass plant response rating [11, 27] | Giant foxtail plant response rating [13, 20] | Redroot pigweed plant response rating [16, 19] | Plant response rating, Redroot pigweed [16, 23] | Plant response rating, Redroot pigweed [16, 28]
6: Plant response rating, Rape [7, 23] | Cocklebur plant response rating [10, 18] | Cocklebur plant response rating [10, 27] | Giant foxtail plant response rating [13, 19]
9: Plant response rating, Giant foxtail [13, 21] | Plant response rating, Giant foxtail [13, 22]
10: Plant response rating, Crabgrass [11, 22] | Plant response rating, Crabgrass [11, 23] | Crabgrass plant response rating [11, 24] | Plant response rating, Crabgrass [11, 28] | Plant response rating, Giant foxtail [13, 23] | Giant foxtail plant response rating [13, 24] | Plant response rating, Giant foxtail [13, 28]
2: Morningglory plant response rating [3, 26] | Soybean plant response rating [5, 17] | Rape plant response rating [7, 27] | Sugarbeets plant response rating [8, 26] | Cocklebur plant response rating [10, 26] | Ducksalad plant response rating [12, 31] | Ducksalad plant response rating [12, 32] | Plant response rating, Redroot pigweed [16, 21]
1: Plant response rating, Soybean [5, 28]
5: Soybean plant response rating [5, 19] | Crabgrass plant response rating [11, 26] | Giant foxtail plant response rating [13, 26] | Redroot pigweed plant response rating [16, 18] | Plant response rating, Redroot pigweed [16, 22]
